# In ChEMBL document CHEMBL3045868, “Synthesis and antibacterial activities of para-alkoxy phenyl--ketoaldehyde derivatives” (Med Chem Res, 2013):
# Legend:
# Helicobacter pylori [1] = experiment: Antibacterial activity against Helicobacter pylori 05-4 assessed as growth inhibition after 16 to 18 hr NCCLS agar dilution method; format: functional, 05-Apr
# Helicobacter pylori [2] = experiment: Antibacterial activity against Helicobacter pylori 06-6 assessed as growth inhibition after 16 to 18 hr NCCLS agar dilution method; format: functional
# Staphylococcus aureus = experiment: Antibacterial activity against Staphylococcus aureus ATCC 25923 assessed as growth inhibition after 16 to 18 hr by NCCLS agar dilution method; format: functional
# Helicobacter pylori [3] = experiment: Antibacterial activity against Helicobacter pylori 05-14 assessed as growth inhibition after 16 to 18 hr NCCLS agar dilution method; format: functional
# Helicobacter pylori [4] = experiment: Antibacterial activity against Helicobacter pylori 06-8 assessed as growth inhibition after 16 to 18 hr NCCLS agar dilution method; format: functional
# Pseudomonas aeruginosa = experiment: Antibacterial activity against Pseudomonas aeruginosa ATCC 27853 assessed as growth inhibition after 16 to 18 hr NCCLS agar dilution method; format: functional
# Helicobacter pylori [5] = experiment: Antibacterial activity against Helicobacter pylori 06-1 assessed as growth inhibition after 16 to 18 hr NCCLS agar dilution method; format: functional
# Helicobacter pylori [6] = experiment: Antibacterial activity against Helicobacter pylori 05-9 assessed as growth inhibition after 16 to 18 hr NCCLS agar dilution method; format: functional
# Helicobacter pylori [7] = experiment: Antibacterial activity against Helicobacter pylori assessed as growth inhibition after 16 to 18 hr NCCLS agar dilution method; format: functional
# Helicobacter pylori [8] = experiment: Antibacterial activity against Helicobacter pylori 05-12 assessed as growth inhibition after 16 to 18 hr NCCLS agar dilution method; format: functional
# Helicobacter pylori [9] = experiment: Antibacterial activity against Helicobacter pylori 06-4 assessed as growth inhibition after 16 to 18 hr NCCLS agar dilution method; format: functional
# Helicobacter pylori [10] = experiment: Antibacterial activity against Helicobacter pylori 06-7 assessed as growth inhibition after 16 to 18 hr NCCLS agar dilution method; format: functional
# Helicobacter pylori [11] = experiment: Antibacterial activity against Helicobacter pylori 06-3 assessed as growth inhibition after 16 to 18 hr NCCLS agar dilution method; format: functional
# Helicobacter pylori [12] = experiment: Antibacterial activity against Helicobacter pylori 05-3 assessed as growth inhibition after 16 to 18 hr NCCLS agar dilution method; format: functional
# Escherichia coli = experiment: Antibacterial activity against Escherichia coli ATCC 25922 assessed as growth inhibition after 16 to 18 hr NCCLS agar dilution method; format: functional
# Helicobacter pylori [13] = experiment: Antibacterial activity against Helicobacter pylori 05-5 assessed as growth inhibition after 16 to 18 hr NCCLS agar dilution method; format: functional
# Helicobacter pylori [14] = experiment: Antibacterial activity against Helicobacter pylori 05-2 assessed as growth inhibition after 16 to 18 hr NCCLS agar dilution method; format: functional
# Helicobacter pylori [15] = experiment: Antibacterial activity against Helicobacter pylori 06-2 assessed as growth inhibition after 16 to 18 hr NCCLS agar dilution method; format: functional
# Helicobacter pylori [16] = experiment: Antibacterial activity against Helicobacter pylori 06-5 assessed as growth inhibition after 16 to 18 hr NCCLS agar dilution method; format: functional
# Helicobacter pylori [17] = experiment: Antibacterial activity against Helicobacter pylori 05-1 assessed as growth inhibition after 16 to 18 hr NCCLS agar dilution method; format: functional
# Helicobacter pylori [18] = experiment: Antibacterial activity against Helicobacter pylori ATCC 11637 assessed as growth inhibition after 16 to 18 hr NCCLS agar dilution method; format: functional
MIC (Helicobacter pylori [1]) [µg/mL],MIC (Helicobacter pylori [2]) [µg/mL],MIC (Staphylococcus aureus) [µg/mL],MIC (Helicobacter pylori [3]) [µg/mL],MIC (Helicobacter pylori [4]) [µg/mL],MIC (Pseudomonas aeruginosa) [µg/mL],MIC (Helicobacter pylori [5]) [µg/mL],MIC (Helicobacter pylori [6]) [µg/mL],MIC50 (Helicobacter pylori [7]) [µg/mL],MIC90 (Helicobacter pylori [7]) [µg/mL],MIC (Helicobacter pylori [8]) [µg/mL],MIC (Helicobacter pylori [9]) [µg/mL],MIC (Helicobacter pylori [10]) [µg/mL],MIC (Helicobacter pylori [11]) [µg/mL],MIC (Helicobacter pylori [12]) [µg/mL],MIC (Escherichia coli) [µg/mL],MIC (Helicobacter pylori [13]) [µg/mL],MIC (Helicobacter pylori [14]) [µg/mL],MIC (Helicobacter pylori [15]) [µg/mL],MIC (Helicobacter pylori [16]) [µg/mL],Structure (SMILES),further results
> 128,128,> 64,> 128,> 128,> 64,> 128,> 128,> 128,> 128,> 128,> 128,128,> 128,> 128,> 64,> 128,> 128,> 128,> 128,COc1ccc(C(=O)C/C=N/NC(N)=O)cc1,MIC (Helicobacter pylori [17]): > 128 µg/mL; MIC (Helicobacter pylori [18]): > 128 µg/mL
> 128,128,> 64,> 128,> 128,> 64,> 128,> 128,> 128,> 128,> 128,128,128,> 128,> 128,> 64,> 128,> 128,> 128,128,COc1ccc(C(=O)/C=C\O)cc1,MIC (Helicobacter pylori [17]): > 128 µg/mL; MIC (Helicobacter pylori [18]): 128 µg/mL
